# Source: the SangsterLogP compilation
row,SMILES,logP
1,Cc1cc(Br)cnc1NS(=O)(=O)c1ccc(N)cc1,2.05
2,N#Cc1cccnc1NS(=O)(=O)c1ccc(N)cc1,0.15
3,Nc1ccc(S(=O)(=O)Nc2ncccc2Br)cc1,1.24
4,Nc1ccc(S(=O)(=O)Nc2ncc(Cl)cc2Cl)cc1,1.97
5,CN(C)c1ccc(NS(=O)(=O)c2ccc(N)cc2)nc1,1.23
6,Nc1ccc(S(=O)(=O)Nc2ccc(Cl)cn2)cc1,1.82
7,Nc1ccc(S(=O)(=O)Nc2ncccc2Cl)cc1,0.82
8,Nc1ccc(S(=O)(=O)Nc2ccc(Cl)nc2)cc1,2.24
9,CCc1cnc(NS(=O)(=O)c2ccc(N)cc2)nc1,0.84
10,Nc1ccc(S(=O)(=O)Nc2ncc(Br)cc2Br)cc1,2.74
11,Nc1ccc(S(=O)(=O)Nc2ccc(Br)cn2)cc1,2.3
12,Cc1cnc(NS(=O)(=O)c2ccc(N)cc2)nc1,0.17
13,Cc1cnc(NS(=O)(=O)c2ccc(N)cc2)c(Br)c1,1.79

# Now from value to compound:
row,logP,SMILES
1,0.26,Cc1cccnc1NS(=O)(=O)c1ccc(N)cc1
2,1.56,COc1ccccc1NS(=O)(=O)c1ccc(N)cc1
3,1.58,Nc1ccc(S(=O)(=O)Nc2cccnc2Cl)cc1
4,2.03,Cc1ccccc1NS(=O)(=O)c1ccc(N)cc1
5,0.49,Cc1ccc(NS(=O)(=O)c2ccc(N)cc2)nc1
6,2,Nc1ccc(S(=O)(=O)Nc2ccccc2Cl)cc1
7,1.76,Nc1ccc(S(=O)(=O)Nc2ccccc2[N+](=O)[O-])cc1
